Assay results published in ChEMBL document CHEMBL5724914, “Linking interpersonal differences in gut microbiota composition and drug biotransformation activity” (2024).

How the values were obtained:
[1] = The drug is tested on Z-027 corresponding to metagenome with ENA study accession number: PRJEB37062 and ENA sample accession number: ERS12561826 for biotransformation under anaerobic condition. The drug concentrations were measured over 9 timepoints collected between 0 and 24 hours of incubation by liquid-chromatography-coupled mass spectrometry (LC–MS); conditions: 2 µM
[2] = The drug is tested on Z-023 corresponding to metagenome with ENA study accession number: PRJEB37062 and ENA sample accession number: ERS12561822 for biotransformation under anaerobic condition. The drug concentrations were measured over 9 timepoints collected between 0 and 24 hours of incubation by liquid-chromatography-coupled mass spectrometry (LC–MS); conditions: 2 µM
[3] = The drug is tested on Z-020 corresponding to rabbit gut metagenome with ENA study accession number: PRJEB37062 and ENA sample accession number: ERS12561819 for biotransformation under anaerobic condition. The drug concentrations were measured over 9 timepoints collected between 0 and 24 hours of incubation by liquid-chromatography-coupled mass spectrometry (LC–MS); conditions: 2 µM
[4] = The drug is tested on Z-019 corresponding to rat gut metagenome with ENA study accession number: PRJEB37062 and ENA sample accession number: ERS12561818 for biotransformation under anaerobic condition. The drug concentrations were measured over 9 timepoints collected between 0 and 24 hours of incubation by liquid-chromatography-coupled mass spectrometry (LC–MS); conditions: 2 µM
[5] = The drug is tested on Z-014 corresponding to rat gut metagenome with ENA study accession number: PRJEB37062 and ENA sample accession number: ERS12561814 for biotransformation under anaerobic condition. The drug concentrations were measured over 9 timepoints collected between 0 and 24 hours of incubation by liquid-chromatography-coupled mass spectrometry (LC–MS); conditions: 2 µM
[6] = The drug is tested on Z-010 corresponding to metagenome with ENA study accession number: PRJEB37062 and ENA sample accession number: ERS12561810 for biotransformation under anaerobic condition. The drug concentrations were measured over 9 timepoints collected between 0 and 24 hours of incubation by liquid-chromatography-coupled mass spectrometry (LC–MS); conditions: 2 µM
[7] = The drug is tested on Z-008 corresponding to metagenome with ENA study accession number: PRJEB37062 and ENA sample accession number: ERS12561808 for biotransformation under anaerobic condition. The drug concentrations were measured over 9 timepoints collected between 0 and 24 hours of incubation by liquid-chromatography-coupled mass spectrometry (LC–MS); conditions: 2 µM
[8] = The drug is tested on Z-003 corresponding to pig gut metagenome with ENA study accession number: PRJEB37062 and ENA sample accession number: ERS12561803 for biotransformation under anaerobic condition. The drug concentrations were measured over 9 timepoints collected between 0 and 24 hours of incubation by liquid-chromatography-coupled mass spectrometry (LC–MS); conditions: 2 µM
[9] = The drug is tested on Z-002 corresponding to rabbit gut metagenome with ENA study accession number: PRJEB37062 and ENA sample accession number: ERS12561802 for biotransformation under anaerobic condition. The drug concentrations were measured over 9 timepoints collected between 0 and 24 hours of incubation by liquid-chromatography-coupled mass spectrometry (LC–MS); conditions: 2 µM
[10] = The drug is tested on WLS-086 corresponding to human gut metagenome with ENA study accession number: PRJEB37062 and ENA sample accession number: ERS12561752 for biotransformation under anaerobic condition. The drug concentrations were measured over 9 timepoints collected between 0 and 24 hours of incubation by liquid-chromatography-coupled mass spectrometry (LC–MS); conditions: 2 µM
[11] = The drug is tested on WLS-069 corresponding to human gut metagenome with ENA study accession number: PRJEB37062 and ENA sample accession number: ERS12561748 for biotransformation under anaerobic condition. The drug concentrations were measured over 9 timepoints collected between 0 and 24 hours of incubation by liquid-chromatography-coupled mass spectrometry (LC–MS); conditions: 2 µM
[12] = The drug is tested on WLS-052 corresponding to human gut metagenome with ENA study accession number: PRJEB37062 and ENA sample accession number: ERS12561747 for biotransformation under anaerobic condition. The drug concentrations were measured over 9 timepoints collected between 0 and 24 hours of incubation by liquid-chromatography-coupled mass spectrometry (LC–MS); conditions: 2 µM
[13] = The drug is tested on WLS-007 corresponding to human gut metagenome with ENA study accession number: PRJEB37062 and ENA sample accession number: ERS12561742 for biotransformation under anaerobic condition. The drug concentrations were measured over 9 timepoints collected between 0 and 24 hours of incubation by liquid-chromatography-coupled mass spectrometry (LC–MS); conditions: 2 µM
[14] = human gut metagenome, 24 h, 2 µM
[15] = human gut metagenome, 24 h, 2 µM; remark: listed apart in the source
[16] = human gut metagenome, 24 h, 2 µM; remark: listed apart in the source
[17] = human gut metagenome, 24 h, 2 µM; remark: listed apart in the source
[18] = human gut metagenome, 24 h, 2 µM; remark: listed apart in the source
[19] = human gut metagenome, 24 h, 2 µM; remark: listed apart in the source
[20] = human gut metagenome, 24 h, 2 µM; remark: listed apart in the source
Further: call rule not given here.

| SMILES | Bacterial Biotransformation [1] | Bacterial Biotransformation [2] | Bacterial Biotransformation [3] | Bacterial Biotransformation [4] | Bacterial Biotransformation [5] | Bacterial Biotransformation [6] | Bacterial Biotransformation [7] | Bacterial Biotransformation [8] | Bacterial Biotransformation [9] | Bacterial Biotransformation [10] | Bacterial Biotransformation [11] | Bacterial Biotransformation [12] | Bacterial Biotransformation [13] | Bacterial Biotransformation [14] | Bacterial Biotransformation [15] | Bacterial Biotransformation [16] | Bacterial Biotransformation [17] | Bacterial Biotransformation [18] | Bacterial Biotransformation [19] | Bacterial Biotransformation [20] |
| --- | --- | --- | --- | --- | --- | --- | --- | --- | --- | --- | --- | --- | --- | --- | --- | --- | --- | --- | --- | --- |
| CC(C)(C)NCC(O)c1cc(Cl)c(N)c(Cl)c1 (stereo not given) [CLENBUTEROL] | Compound NOT metabolized | Compound NOT metabolized | Compound NOT metabolized | Compound NOT metabolized | Compound NOT metabolized | Compound NOT metabolized | Compound NOT metabolized | Compound NOT metabolized | Compound NOT metabolized | Compound NOT metabolized | Compound NOT metabolized | Compound NOT metabolized | Compound NOT metabolized | Compound NOT metabolized | Compound NOT metabolized | Compound NOT metabolized | Compound NOT metabolized | Compound NOT metabolized | Compound NOT metabolized | Compound NOT metabolized |
| CN(C)CCOC(C)(c1ccccc1)c1ccccn1.O=C(O)CCC(=O)O (stereo not given) [DOXYLAMINE SUCCINATE] | Compound NOT metabolized | Compound NOT metabolized | Compound NOT metabolized | Compound NOT metabolized | Compound NOT metabolized | Compound NOT metabolized | Compound NOT metabolized | Compound NOT metabolized | Compound NOT metabolized | Compound NOT metabolized | Compound NOT metabolized | Compound NOT metabolized | Compound NOT metabolized | Compound NOT metabolized | Compound NOT metabolized | Compound NOT metabolized | Compound NOT metabolized | Compound NOT metabolized | Compound NOT metabolized | Compound NOT metabolized |
| CCOc1cc(CC(=O)N[C@@H](CC(C)C)c2ccccc2N2CCCCC2)ccc1C(=O)O [REPAGLINIDE] | Compound metabolized | Compound metabolized | Compound metabolized | Compound NOT metabolized | Compound NOT metabolized | Compound metabolized | Compound metabolized | Compound metabolized | Compound metabolized | Compound metabolized | Compound metabolized | Compound metabolized | Compound metabolized | Compound metabolized | Compound metabolized | Compound metabolized | Compound metabolized | Compound metabolized | Compound metabolized | Compound NOT metabolized |
| CC[C@@]1(O)C(=O)OCc2c1cc1n(c2=O)Cc2cc3c(CN(C)C)c(O)ccc3nc2-1 [TOPOTECAN] | Compound NOT metabolized | Compound NOT metabolized | Compound NOT metabolized | Compound NOT metabolized | Compound NOT metabolized | Compound NOT metabolized | Compound NOT metabolized | Compound NOT metabolized | Compound NOT metabolized | Compound NOT metabolized | Compound NOT metabolized | Compound NOT metabolized | Compound NOT metabolized | Compound NOT metabolized | Compound NOT metabolized | Compound NOT metabolized | Compound NOT metabolized | Compound NOT metabolized | Compound NOT metabolized | Compound NOT metabolized |
| COc1ccc2c(c1)c(CC(=O)O)c(C)n2C(=O)c1ccc(Cl)cc1 [INDOMETHACIN] | Compound metabolized | Compound NOT metabolized | Compound metabolized | Compound NOT metabolized | Compound NOT metabolized | Compound NOT metabolized | Compound NOT metabolized | Compound NOT metabolized | Compound NOT metabolized | Compound metabolized | Compound metabolized | Compound metabolized | Compound metabolized | Compound metabolized | Compound metabolized | Compound metabolized | Compound metabolized | Compound metabolized | Compound NOT metabolized | Compound metabolized |
